Tests used:
[1] = target: T1, JAK3 (Homo sapiens, UniProt P52333); experiment: JAK3 Inhibition Assay; format: biochemical; conditions: 1 nM JAK3, 1 μM poly(Glu)4Tyr, 5 μM ATP, 25° C., 33P incorporation
T1 sequence (P52333 1-1124): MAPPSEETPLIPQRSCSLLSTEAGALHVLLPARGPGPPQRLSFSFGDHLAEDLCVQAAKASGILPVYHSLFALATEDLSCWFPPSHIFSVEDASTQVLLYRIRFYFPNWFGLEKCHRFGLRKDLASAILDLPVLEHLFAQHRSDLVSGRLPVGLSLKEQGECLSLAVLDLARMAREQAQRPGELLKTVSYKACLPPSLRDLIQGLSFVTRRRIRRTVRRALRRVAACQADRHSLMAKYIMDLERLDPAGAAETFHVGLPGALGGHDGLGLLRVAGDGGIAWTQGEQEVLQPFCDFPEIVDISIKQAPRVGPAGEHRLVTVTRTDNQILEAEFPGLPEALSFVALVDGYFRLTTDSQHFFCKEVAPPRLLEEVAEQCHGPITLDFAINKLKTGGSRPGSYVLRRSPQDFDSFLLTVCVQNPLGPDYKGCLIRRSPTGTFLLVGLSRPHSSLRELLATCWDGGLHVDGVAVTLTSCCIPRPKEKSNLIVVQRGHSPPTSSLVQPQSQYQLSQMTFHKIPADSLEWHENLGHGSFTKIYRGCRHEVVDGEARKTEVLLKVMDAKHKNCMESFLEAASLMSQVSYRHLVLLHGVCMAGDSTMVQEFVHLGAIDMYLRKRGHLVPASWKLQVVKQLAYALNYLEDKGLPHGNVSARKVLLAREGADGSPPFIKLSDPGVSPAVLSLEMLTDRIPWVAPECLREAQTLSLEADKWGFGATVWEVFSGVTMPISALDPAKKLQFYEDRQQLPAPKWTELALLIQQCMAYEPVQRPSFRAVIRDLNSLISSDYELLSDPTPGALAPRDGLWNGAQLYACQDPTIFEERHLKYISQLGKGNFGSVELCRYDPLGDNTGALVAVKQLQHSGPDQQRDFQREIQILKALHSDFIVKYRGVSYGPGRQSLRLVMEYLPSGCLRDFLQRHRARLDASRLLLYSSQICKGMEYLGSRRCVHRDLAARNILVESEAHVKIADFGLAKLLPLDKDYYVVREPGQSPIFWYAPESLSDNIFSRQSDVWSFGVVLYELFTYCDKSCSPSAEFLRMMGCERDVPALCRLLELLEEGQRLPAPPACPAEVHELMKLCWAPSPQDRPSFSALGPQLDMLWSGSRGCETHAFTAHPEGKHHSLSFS

[2] = target: JAK-2 enzyme (Homo sapiens, UniProt O60674); experiment: JAK2 Inhibition Assay
JAK-2 enzyme, sequence (O60674 whole entry): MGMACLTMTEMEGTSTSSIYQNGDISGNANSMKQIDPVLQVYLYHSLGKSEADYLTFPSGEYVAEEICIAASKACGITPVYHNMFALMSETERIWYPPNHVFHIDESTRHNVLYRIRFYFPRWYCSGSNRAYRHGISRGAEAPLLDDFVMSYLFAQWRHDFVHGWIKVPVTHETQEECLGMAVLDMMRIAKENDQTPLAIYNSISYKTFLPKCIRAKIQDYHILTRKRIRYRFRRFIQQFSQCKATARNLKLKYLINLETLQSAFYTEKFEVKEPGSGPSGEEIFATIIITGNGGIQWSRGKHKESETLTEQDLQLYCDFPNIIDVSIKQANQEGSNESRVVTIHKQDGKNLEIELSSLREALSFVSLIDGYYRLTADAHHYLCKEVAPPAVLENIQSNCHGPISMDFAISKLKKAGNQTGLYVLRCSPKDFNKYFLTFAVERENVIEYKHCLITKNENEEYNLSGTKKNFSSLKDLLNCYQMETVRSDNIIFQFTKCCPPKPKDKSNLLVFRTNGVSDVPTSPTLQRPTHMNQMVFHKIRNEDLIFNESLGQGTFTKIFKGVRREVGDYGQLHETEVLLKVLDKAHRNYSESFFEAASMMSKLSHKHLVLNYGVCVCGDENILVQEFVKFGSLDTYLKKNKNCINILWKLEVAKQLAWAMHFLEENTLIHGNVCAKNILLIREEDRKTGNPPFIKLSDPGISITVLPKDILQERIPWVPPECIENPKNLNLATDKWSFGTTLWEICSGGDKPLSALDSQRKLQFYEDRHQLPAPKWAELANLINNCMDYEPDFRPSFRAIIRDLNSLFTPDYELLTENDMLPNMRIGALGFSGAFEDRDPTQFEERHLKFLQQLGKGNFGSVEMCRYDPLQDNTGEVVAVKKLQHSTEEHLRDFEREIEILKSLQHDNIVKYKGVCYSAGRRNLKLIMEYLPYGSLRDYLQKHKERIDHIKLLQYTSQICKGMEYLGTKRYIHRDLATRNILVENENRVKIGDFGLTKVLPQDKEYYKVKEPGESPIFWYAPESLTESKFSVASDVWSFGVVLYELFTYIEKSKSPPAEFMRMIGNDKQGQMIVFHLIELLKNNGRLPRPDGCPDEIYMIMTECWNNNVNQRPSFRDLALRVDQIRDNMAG
Description: Reactions were carried out in a kinase buffer containing 100 mM HEPES (pH 7.4), 1 mM DTT, 10 mM MgCl2, 25 mM NaCl, and 0.01% BSA. Substrate concentrations in the assay were 5 μM ATP (200 uCi/μmole ATP) and 1 μM poly(Glu)4Tyr. Reactions were carried out at 25° C. and 1 nM JAK3.
To each well of a 96 well polycarbonate plate was added 1.5 μl of a candidate JAK3 inhibitor along with 50 μl of kinase buffer containing 2 μM poly(Glu)4Tyr and 10 μM ATP. This was then mixed and 50 μl of kinase buffer containing 2 nM JAK3 enzyme was added to start the reaction. After 20 minutes at room temperature (25° C.), the reaction was stopped with 50 μl of 20% trichloroacetic acid (TCA) that also contained 0.4 mM ATP. The entire contents of each well were then transferred to a 96 well glass fiber filter plate using a TomTek Cell Harvester. After washing, 60 μl of scintillation fluid was added and ^33P incorporation detected on a Perkin Elmer TopCount.

CC[C@H](Nc1cc(-c2c(N)nn3cccnc23)ncn1)c1ccc(F)cc1Cl [Compound 82]
Ki [1]: 0.01 to 0.1 µM
Ki [2]: < 0.01 µM

CCC[C@@H](Nc1cc(-c2c(N)nn3cccnc23)ncn1)c1ccc(F)c(F)c1 [Compound 97]
Ki [1]: 0.1 to 0.5 µM
Ki [2]: 0.01 to 0.1 µM

CC#CC(C)Oc1nc(N[C@@H](C)c2ccc(F)cc2)cc(-c2c(N)nn3cccnc23)n1 (stereo partly drawn) [Compound 181]
Ki [1]: 0.1 to 0.5 µM
Ki [2]: 0.01 to 0.1 µM

Nc1nn2cccnc2c1-c1cc(O[C@H](c2ccccc2)C(F)(F)F)ncn1 [Compound 69]
Ki [1]: 0.1 to 0.5 µM
Ki [2]: 0.01 to 0.1 µM

CC(C)[C@H](Nc1cc(-c2c(N)nn3cccnc23)nc(N2CCOCC2)n1)c1ccc(F)cc1F [Compound 125]
Ki [1]: 0.1 to 0.5 µM
Ki [2]: 0.01 to 0.1 µM

COCCC(=O)Nc1nc(N[C@@H](C)c2ccc(F)cc2F)cc(-c2cnn3cccnc23)n1 [Compound 184]
Ki [1]: 0.1 to 0.5 µM
Ki [2]: < 0.01 µM

C[C@H](Nc1cc(-c2cnn3cccnc23)nc(OCCN2CCCCC2)n1)c1ccc(F)cc1F [Compound 195]
Ki [1]: 0.01 to 0.1 µM
Ki [2]: < 0.01 µM

N#Cc1cccc(C(=O)Nc2ccnc(-c3cnn4cccnc34)c2)c1 [Compound 230]
Ki [1]: 0.5 to 5 µM
Ki [2]: 0.1 to 0.5 µM

C[C@H](Nc1cc(-c2cnn3cccnc23)ncn1)c1ccc(F)cc1 [Compound 114]
Ki [1]: 0.01 to 0.1 µM
Ki [2]: < 0.01 µM

CC(C)OCCOc1nc(N[C@@H](C)c2ccc(F)cc2F)cc(-c2cnn3cccnc23)n1 [Compound 219]
Ki [1]: 0.01 to 0.1 µM
Ki [2]: < 0.01 µM

Nc1nn2cccnc2c1-c1cc(N[C@@H](CCO)c2ccccc2)nc(N2CCOCC2)n1 [Compound 102]
Ki [1]: 0.1 to 0.5 µM
Ki [2]: 0.01 to 0.1 µM

CSCCCOc1nc(N[C@@H](C)c2ccc(F)cc2)cc(-c2c(N)nn3cccnc23)n1 [Compound 172]
Ki [1]: 0.01 to 0.1 µM
Ki [2]: < 0.01 µM

OCC[C@H](Nc1cc(-c2cnn3cccnc23)ncn1)c1ccccc1 [Compound 115]
Ki [1]: 0.01 to 0.1 µM
Ki [2]: 0.01 to 0.1 µM

C[C@H](Nc1cc(-c2cnn3cccnc23)nc(OCCCN(C)C)n1)c1ccc(F)cc1F [Compound 211]
Ki [1]: 0.01 to 0.1 µM
Ki [2]: < 0.01 µM

COC(C)(C)CCOc1nc(N[C@@H](C)c2ccc(F)cc2F)cc(-c2c(N)nn3cccnc23)n1 [Compound 138]
Ki [1]: 0.01 to 0.1 µM
Ki [2]: < 0.01 µM

C[C@H](Nc1cc(-c2c(N)nn3cccnc23)nc(OCCOC(C)(C)C)n1)c1ccc(F)cc1 [Compound 160]
Ki [1]: 0.1 to 0.5 µM
Ki [2]: 0.01 to 0.1 µM

CC(C)[C@@H](Nc1cc(-c2c(N)nn3cccnc23)nc(N2CCOCC2)n1)c1ccc(F)cc1F [Compound 104]
Ki [1]: 0.5 to 5 µM
Ki [2]: 0.1 to 0.5 µM

C[C@H](Nc1cc(-c2c(N)nn3cccnc23)nc(O)n1)c1ccc(F)cc1F [Compound 131]
Ki [1]: 0.01 to 0.1 µM
Ki [2]: < 0.01 µM

C#CC(CC)Oc1nc(N[C@@H](C)c2ccc(F)cc2)cc(-c2c(N)nn3cccnc23)n1 (stereo partly drawn) [Compound 180]
Ki [1]: 0.1 to 0.5 µM
Ki [2]: < 0.01 µM

CC(C)Oc1nc(N[C@@H](C)c2ccc(F)cc2F)cc(-c2c(N)nn3cccnc23)n1 [Compound 129]
Ki [1]: 0.1 to 0.5 µM
Ki [2]: 0.01 to 0.1 µM

O=C(Nc1ccnc(-c2cnn3cccnc23)c1)c1ccc(F)c(F)c1 [Compound 231]
Ki [1]: 0.5 to 5 µM
Ki [2]: 0.1 to 0.5 µM

C=CCOCCOc1nc(N[C@@H](C)c2ccc(F)cc2F)cc(-c2cnn3cccnc23)n1 [Compound 221]
Ki [1]: 0.01 to 0.1 µM
Ki [2]: < 0.01 µM

C[C@H](Nc1cc(-c2c(N)nn3cccnc23)nc(OCC2CCCN(C)C2)n1)c1ccc(F)cc1 (stereo partly drawn) [Compound 171]
Ki [1]: 0.01 to 0.1 µM
Ki [2]: 0.01 to 0.1 µM

C[C@H](Nc1cc(-c2cnn3cccnc23)nc(OCC2CCCC2)n1)c1ccc(F)cc1F [Compound 223]
Ki [1]: 0.1 to 0.5 µM
Ki [2]: 0.01 to 0.1 µM

CC#CCCOc1nc(N[C@@H](C)c2ccc(F)cc2)cc(-c2c(N)nn3cccnc23)n1 [Compound 155]
Ki [1]: 0.1 to 0.5 µM
Ki [2]: < 0.01 µM

C#CCOc1nc(N[C@@H](C)c2ccc(F)cc2)cc(-c2c(N)nn3cccnc23)n1 [Compound 150]
Ki [1]: 0.01 to 0.1 µM
Ki [2]: < 0.01 µM

C[C@H](Nc1cc(-c2cnn3cccnc23)nc(OCC2CCCNC2)n1)c1ccc(F)cc1F (stereo partly drawn) [Compound 202]
Ki [1]: 0.01 to 0.1 µM
Ki [2]: < 0.01 µM

C[C@H](Nc1cc(-c2cnn3cccnc23)nc(OCCN2CCNCC2)n1)c1ccc(F)cc1F [Compound 210]
Ki [1]: 0.01 to 0.1 µM
Ki [2]: < 0.01 µM

CCN(CC)CCOc1nc(N[C@@H](C)c2ccc(F)cc2F)cc(-c2cnn3cccnc23)n1 [Compound 208]
Ki [1]: 0.01 to 0.1 µM
Ki [2]: < 0.01 µM

CC(C)[C@H](Nc1cc(-c2c(N)nn3ccc(C(F)(F)F)nc23)ncn1)c1ccc(F)cc1F [Compound 136]
Ki [1]: 0.1 to 0.5 µM
Ki [2]: 0.01 to 0.1 µM

Nc1nn2cccnc2c1-c1cc(N2CCCC2c2ccccc2)ncn1 (stereo not drawn) [Compound 57]
Ki [1]: 0.01 to 0.1 µM
Ki [2]: < 0.01 µM

C[C@H](Nc1cc(-c2c(N)nn3ccc(C(F)(F)F)nc23)ncn1)c1ccc(F)cc1 [Compound 134]
Ki [1]: 0.01 to 0.1 µM
Ki [2]: 0.01 to 0.1 µM

C[C@H](Nc1cc(-c2c(N)nn3cccnc23)nc(NCCN2CCOCC2)n1)c1ccc(F)cc1 [Compound 124]
Ki [1]: 0.01 to 0.1 µM
Ki [2]: < 0.01 µM

C[C@H](Nc1cc(-c2c(N)nn3cccnc23)nc(OCC2CCCN2)n1)c1ccc(F)cc1F (stereo partly drawn) [Compound 142]
Ki [1]: 0.1 to 0.5 µM
Ki [2]: 0.01 to 0.1 µM

CN(Cc1cccnc1)c1cc(-c2c(N)nn3cccnc23)ncn1 [Compound 33]
Ki [1]: 0.01 to 0.1 µM
Ki [2]: 0.01 to 0.1 µM

COc1ccccc1CNc1cc(-c2c(N)nn3cccnc23)ncn1 [Compound 5]
Ki [1]: 0.01 to 0.1 µM
Ki [2]: < 0.01 µM

C[C@H](Nc1cc(-c2cnn3cccnc23)nc(OCC2CCCN(C)C2)n1)c1ccc(F)cc1F (stereo partly drawn) [Compound 215]
Ki [1]: 0.01 to 0.1 µM
Ki [2]: < 0.01 µM

C[C@H](Nc1cc(-c2c(N)nn3cccnc23)nc(OCC2CCOC2)n1)c1ccc(F)cc1 (stereo partly drawn) [Compound 164]
Ki [1]: 0.01 to 0.1 µM
Ki [2]: < 0.01 µM

CC#CCOc1nc(N[C@@H](C)c2ccc(F)cc2)cc(-c2c(N)nn3cccnc23)n1 [Compound 151]
Ki [1]: 0.1 to 0.5 µM
Ki [2]: 0.01 to 0.1 µM

C[C@H](Nc1cc(-c2cnn3cccnc23)nc(OCC2CC2)n1)c1ccc(F)cc1F [Compound 205]
Ki [1]: 0.1 to 0.5 µM
Ki [2]: < 0.01 µM

CC(C)NCCOc1nc(N[C@@H](C)c2ccc(F)cc2F)cc(-c2cnn3cccnc23)n1 [Compound 207]
Ki [1]: 0.01 to 0.1 µM
Ki [2]: < 0.01 µM

CSCCOc1nc(N[C@@H](C)c2ccc(F)cc2)cc(-c2c(N)nn3cccnc23)n1 [Compound 173]
Ki [1]: 0.01 to 0.1 µM
Ki [2]: < 0.01 µM

CC[C@H](Nc1ccnc(-c2cnn3cccnc23)n1)c1ccc(F)c(F)c1 [Compound 225]
Ki [1]: 0.5 to 5 µM
Ki [2]: 0.01 to 0.1 µM

C[C@H](Nc1cc(-c2c(N)nn3cc(F)cnc23)ncn1)c1ccc(F)cc1F [Compound 105]
Ki [1]: 0.01 to 0.1 µM
Ki [2]: < 0.01 µM

CC[C@H](Nc1cc(-c2cnn3cccnc23)ncn1)c1ccc(F)c(F)c1 [Compound 145]
Ki [1]: 0.01 to 0.1 µM
Ki [2]: < 0.01 µM

CCC1c2ccccc2CCN1c1cc(-c2c(N)nn3cccnc23)ncn1 (stereo not drawn) [Compound 64]
Ki [1]: 0.1 to 0.5 µM
Ki [2]: < 0.01 µM

C#CCCCOc1nc(N[C@@H](C)c2ccc(F)cc2)cc(-c2c(N)nn3cccnc23)n1 [Compound 183]
Ki [1]: 0.01 to 0.1 µM
Ki [2]: < 0.01 µM

Cc1ccccc1CNc1cc(-c2c(N)nn3cccnc23)ncn1 [Compound 11]
Ki [1]: 0.01 to 0.1 µM
Ki [2]: < 0.01 µM

CCC(Oc1cc(-c2c(N)nn3cccnc23)ncn1)c1ccccc1 (stereo not drawn) [Compound 65]
Ki [1]: 0.01 to 0.1 µM
Ki [2]: < 0.01 µM

CCN(CC)CCOc1nc(N[C@@H](C)c2ccc(F)cc2)cc(-c2c(N)nn3cccnc23)n1 [Compound 99]
Ki [1]: 0.01 to 0.1 µM
Ki [2]: < 0.01 µM

COCCOc1nc(N[C@@H](C)c2ccc(F)cc2)cc(-c2c(N)nn3cccnc23)n1 [Compound 108]
Ki [1]: 0.01 to 0.1 µM
Ki [2]: < 0.01 µM

C[C@H](Nc1cc(-c2cnn3cccnc23)ncn1)c1ccc(F)c(F)c1 [Compound 118]
Ki [1]: 0.01 to 0.1 µM
Ki [2]: < 0.01 µM

Nc1nn2cccnc2c1-c1cc(N[C@@H]2CCCc3ccccc32)ncn1 [Compound 79]
Ki [1]: 0.1 to 0.5 µM
Ki [2]: 0.01 to 0.1 µM

C[C@H](Nc1cc(-c2c(N)nn3cccnc23)nc(OCC2CC2)n1)c1ccc(F)cc1 [Compound 166]
Ki [1]: 0.01 to 0.1 µM
Ki [2]: < 0.01 µM

— patent US8937064B2, “Pyrazolo[1,5-a]pyrimidines useful as JAK2 inhibitors” (Vertex Pharmaceuticals Incorporated, priority 2007, dated 2015)
